Data as given in ChEMBL document CHEMBL1148621, “Evaluation of carbon-11-labeled 2beta-carbomethoxy-3beta-[4'-((Z)-2-iodoethenyl)phenyl]nortropane as a potential radioligand for imaging the serotonin transporter by PET” (J Med Chem, 2006).

Experiments:
[1] = target: Sodium-dependent noradrenaline transporter (Homo sapiens, UniProt P23975); experiment: Displacement of [3H]nisoxetine from NET
[2] = target: Sodium-dependent dopamine transporter (Homo sapiens, UniProt Q01959); experiment: Displacement of [123I]RTI-55 from DAT
Sodium-dependent dopamine transporter, sequence (Q01959 whole entry): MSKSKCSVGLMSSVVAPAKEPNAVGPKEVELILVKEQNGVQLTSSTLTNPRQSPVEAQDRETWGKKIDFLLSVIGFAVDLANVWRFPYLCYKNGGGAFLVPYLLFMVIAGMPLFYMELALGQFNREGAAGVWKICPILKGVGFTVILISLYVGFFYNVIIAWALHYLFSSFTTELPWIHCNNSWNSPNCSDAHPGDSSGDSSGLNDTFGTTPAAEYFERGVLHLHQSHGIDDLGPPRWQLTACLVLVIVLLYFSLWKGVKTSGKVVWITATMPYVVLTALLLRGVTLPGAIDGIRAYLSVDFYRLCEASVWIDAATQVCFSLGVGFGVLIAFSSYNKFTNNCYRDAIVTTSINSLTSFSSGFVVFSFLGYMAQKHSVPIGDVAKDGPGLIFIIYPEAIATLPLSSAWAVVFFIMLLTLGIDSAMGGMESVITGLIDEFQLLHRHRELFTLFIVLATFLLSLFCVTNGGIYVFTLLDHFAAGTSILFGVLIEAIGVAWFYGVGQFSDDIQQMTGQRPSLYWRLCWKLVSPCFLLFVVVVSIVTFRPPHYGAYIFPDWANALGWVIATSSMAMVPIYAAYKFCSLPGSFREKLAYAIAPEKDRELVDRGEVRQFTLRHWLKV

Sodium-dependent noradrenaline transporter, sequence (P23975 whole entry): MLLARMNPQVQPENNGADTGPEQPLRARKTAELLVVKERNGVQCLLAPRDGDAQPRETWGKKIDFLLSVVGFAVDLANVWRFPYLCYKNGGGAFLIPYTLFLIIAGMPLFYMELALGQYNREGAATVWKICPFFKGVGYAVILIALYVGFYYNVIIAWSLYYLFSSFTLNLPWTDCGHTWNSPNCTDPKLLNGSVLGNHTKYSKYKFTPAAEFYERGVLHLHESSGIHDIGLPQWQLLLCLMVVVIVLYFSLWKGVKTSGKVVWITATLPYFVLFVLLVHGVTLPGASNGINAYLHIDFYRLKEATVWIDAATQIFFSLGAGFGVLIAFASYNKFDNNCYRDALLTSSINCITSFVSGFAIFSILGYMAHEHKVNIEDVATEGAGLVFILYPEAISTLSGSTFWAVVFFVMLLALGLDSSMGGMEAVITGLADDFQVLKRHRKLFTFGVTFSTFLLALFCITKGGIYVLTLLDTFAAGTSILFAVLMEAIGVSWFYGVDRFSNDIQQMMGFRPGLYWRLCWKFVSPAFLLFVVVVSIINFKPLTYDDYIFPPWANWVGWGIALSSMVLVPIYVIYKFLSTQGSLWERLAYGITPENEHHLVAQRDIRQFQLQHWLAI

**Q.** Which Ki [1] does the source give for COC(=O)C1C2CCC(CC1c1ccc(/C=C\I)cc1)N2 (configuration not stated) here?
**A.** 0.015 µM

**Q.** What about the Ki [2] of the same compound?
**A.** 0.006 µM
